According to the supplement of paper PMC13380429:

Key:
Settings in all cases: 72 h
HepG2 [1] = assay: relative viability EC50 (midpoint between 100% and the lowest measured viability); higher = less toxic
Vero E6 [2] = assay: as above
U2OS [3] = assay: as above
Caco-2 [4] = assay: as above
Calu-3 [5] = assay: as above
HepG2 [6] = assay: cell viability relative to DMSO; higher = less toxic
Vero E6 [7] = assay: as above
U2OS [8] = assay: as above
Caco-2 [9] = assay: as above
Calu-3 [10] = assay: as above
HepG2 [11] = assay: drug sensitivity score (DSS) for viability; higher = more toxic; extreme values may be limits of the assay
Vero E6 [12] = assay: as above
U2OS [13] = assay: as above
Caco-2 [14] = assay: as above
Calu-3 [15] = assay: as above

| Structure (SMILES) | relative viability EC50 (HepG2 [1]) [µM] | relative viability EC50 (Vero E6 [2]) [µM] | relative viability EC50 (U2OS [3]) [µM] | relative viability EC50 (Caco-2 [4]) [µM] | relative viability EC50 (Calu-3 [5]) [µM] | cell viability (HepG2 [6]; 1 nM) [%] | cell viability (HepG2 [6]; 10 nM) [%] | cell viability (HepG2 [6]; 100 nM) [%] | cell viability (HepG2 [6]; 1000 nM) [%] | cell viability (HepG2 [6]; 10000 nM) [%] | cell viability (Vero E6 [7]; 1 nM) [%] | cell viability (Vero E6 [7]; 10 nM) [%] | cell viability (Vero E6 [7]; 100 nM) [%] | cell viability (Vero E6 [7]; 1000 nM) [%] | cell viability (Vero E6 [7]; 10000 nM) [%] | cell viability (U2OS [8]; 1 nM) [%] | cell viability (U2OS [8]; 10 nM) [%] | cell viability (U2OS [8]; 100 nM) [%] | cell viability (U2OS [8]; 1000 nM) [%] | cell viability (U2OS [8]; 10000 nM) [%] | cell viability (Caco-2 [9]; 1 nM) [%] | cell viability (Caco-2 [9]; 10 nM) [%] | cell viability (Caco-2 [9]; 100 nM) [%] | cell viability (Caco-2 [9]; 1000 nM) [%] | cell viability (Caco-2 [9]; 10000 nM) [%] | cell viability (Calu-3 [10]; 1 nM) [%] | cell viability (Calu-3 [10]; 10 nM) [%] | cell viability (Calu-3 [10]; 100 nM) [%] | cell viability (Calu-3 [10]; 1000 nM) [%] | cell viability (Calu-3 [10]; 10000 nM) [%] | drug sensitivity score (HepG2 [11]) | drug sensitivity score (Vero E6 [12]) | drug sensitivity score (U2OS [13]) | drug sensitivity score (Caco-2 [14]) | drug sensitivity score (Calu-3 [15]) |
| --- | --- | --- | --- | --- | --- | --- | --- | --- | --- | --- | --- | --- | --- | --- | --- | --- | --- | --- | --- | --- | --- | --- | --- | --- | --- | --- | --- | --- | --- | --- | --- | --- | --- | --- | --- |
| CC(C)[C@H]1[C@@H]2CC[C@@H](C2)[C@@H]1N | > 10 | > 10 | > 10 | > 10 | > 10 | 89.5 | 95 | 93.6 | 97.4 | 90.1 | 89.6 | 99.3 | 88.5 | 95.3 | 108 | 103 | 102 | 98 | 93.6 | 92.1 | 96.8 | 98.9 | 106 | 100 | 83.9 | 102 | 99.7 | 98.6 | 96 | 104 | 0 | 0 | 0 | 0.3 | 0 |
| CCC(=O)c1cc(-c2ccc(Cl)cc2)n(-c2ccc(S(N)(=O)=O)cc2)c1C | > 10 | > 10 | > 10 | > 10 | > 10 | 105 | 102 | 102 | 122 | 91.5 | 103 | 104 | 98.4 | 101 | 91.2 | 103 | 99.6 | 99.3 | 96.4 | 102 | 101 | 91.1 | 107 | 96.5 | 89.7 | 96.6 | 97.4 | 103 | 102 | 103 | 0 | 0 | 0 | 0 | 0 |
| CCCC[P+](CCCC)(CCCC)Cc1ccc(NC(=O)[C@H](Cc2ccc3ccccc3c2)N/C(=N/C2CCCCC2)NC2CCCCC2)cc1 | > 10 | > 10 | > 10 | > 10 | > 10 | 95.5 | 107 | 117 | 97.3 | 88.5 | 102 | 97.7 | 107 | 100 | 90.7 | 98.7 | 99.7 | 96.5 | 96.6 | 88.9 | 90.8 | 100 | 87.9 | 102 | 81.4 | 94.7 | 91.2 | 97.5 | 97.4 | 86.2 | 0.1 | 0 | 0 | 0.4 | 0 |
| CCCCc1ccc(NS(=O)(=O)c2ccc(F)cc2)cc1 | > 10 | > 10 | > 10 | > 10 | > 10 | 101 | 114 | 86.6 | 99.4 | 86.5 | 101 | 101 | 99.9 | 99.1 | 96.2 | 97.4 | 96.2 | 99 | 101 | 100 | 94.9 | 87.2 | 98.6 | 93.3 | 88.5 | 93.2 | 87.6 | 100 | 98.5 | 102 | 1.6 | 0 | 0 | 0 | 0 |
| CCCc1c(OCC(O)COc2ccc3c(=O)cc(C(=O)O)oc3c2CCC)ccc(C(C)=O)c1O (stereo not given) | > 10 | > 10 | > 10 | > 10 | > 10 | 99.8 | 107 | 96.9 | 103 | 92.4 | 102 | 105 | 97.2 | 97.9 | 89.6 | 104 | 95.5 | 102 | 97.4 | 98.9 | 99.1 | 92.4 | 93.6 | 102 | 95 | 107 | 90.8 | 99.7 | 102 | 109 | 0 | 0 | 0 | 0 | 0 |
| CCOC(=O)[C@@H](C)Oc1cccc2c(=O)n(CC(=O)Nc3ccc4c(c3)OCCO4)ccc12 | > 10 | > 10 | > 10 | > 10 | > 10 | 106 | 92.7 | 98.6 | 91.4 | 102 | 101 | 99.4 | 99 | 98.5 | 99.1 | 98.3 | 101 | 95.8 | 105 | 88.9 | 90.5 | 113 | 95.5 | 101 | 83.5 | 92.5 | 88.6 | 80.8 | 95.5 | 89.8 | 0 | 0 | 0 | 0.3 | 0 |
| CNc1ncc2cc(-c3cc(NC(=O)NCCC(C)(C)C)c(F)cc3C)c(C)nc2n1 | 0.189 | 0.915 | 1.67 | 1.09 | 1.34 | 111 | 98.9 | 78.2 | 12.5 | 8.3 | 96.6 | 103 | 95.1 | 59.2 | 22.3 | 104 | 104 | 97.9 | 82.3 | 17.6 | 101 | 97.9 | 99.1 | 71.1 | 35.7 | 90.9 | 106 | 106 | 75.5 | 24.6 | 18.9 | 9.1 | 7.4 | 7.2 | 7.7 |
| COc1cc(Br)c(S(=O)(=O)Nc2ccc(C(F)(F)F)c(O[C@@H]3CCN(C)C3)c2)cc1OC | > 10 | > 10 | > 10 | > 10 | > 10 | 85.4 | 107 | 93.3 | 96.7 | 91.2 | 91.5 | 101 | 99 | 103 | 94.9 | 105 | 96.3 | 95 | 98.3 | 96.6 | 102 | 100 | 101 | 95.9 | 95.9 | 103 | 94.7 | 99.3 | 98.1 | 104 | 0 | 0 | 0 | 0 | 0 |
| COc1cc2c(Nc3ccc(NC(=O)c4ccccc4)cc3)ncnc2cc1OCCCN1CCOCC1 | > 10 | > 10 | > 10 | > 10 | > 10 | 102 | 107 | 96.4 | 108 | 109 | 99.7 | 101 | 101 | 97.3 | 108 | 105 | 98.3 | 101 | 103 | 102 | 99.6 | 96.8 | 106 | 102 | 108 | 95.2 | 95.5 | 96.9 | 79.4 | 99.6 | 0 | 0 | 0 | 0 | 0 |
| COc1ncc(-c2ccc3c(Nc4cc(Oc5cc(F)cc(F)c5)cc(C(=O)O)c4)c(S(=O)(=O)NC4CC4)cnc3c2)c(OC)n1 | > 10 | > 10 | > 10 | > 10 | > 10 | 97 | 107 | 96.8 | 101 | 85.6 | 101 | 101 | 99.9 | 104 | 101 | 104 | 104 | 98.8 | 93.2 | 99.8 | 103 | 100 | 85 | 92.2 | 97.5 | 95.3 | 107 | 87.9 | 96.3 | 102 | 0.2 | 0 | 0 | 0 | 0 |
| CS(=O)(=O)Nc1ccc(Cc2noc(-c3ccc4[nH]cc(CCN)c4c3)n2)cc1 | > 10 | > 10 | > 10 | > 10 | > 10 | 93.8 | 116 | 91.2 | 95.8 | 98 | 98.3 | 105 | 100 | 101 | 106 | 98.6 | 96.9 | 102 | 99.1 | 98.8 | 97.9 | 101 | 105 | 98.5 | 104 | 104 | 101 | 102 | 90.2 | 103 | 0 | 0 | 0 | 0 | 0 |
| C[C@@H](Oc1ccc(Cl)cc1)c1ccnc2ncnn12 | > 10 | > 10 | > 10 | > 10 | > 10 | 95 | 102 | 92.7 | 96.3 | 107 | 96.2 | 97.7 | 90.1 | 96.2 | 106 | 95.8 | 94.3 | 99.3 | 99.9 | 99.2 | 97.2 | 91.7 | 94 | 109 | 93 | 118 | 97.6 | 100 | 89.7 | 95 | 0 | 0 | 0 | 0 | 0 |
| C[C@@H]1CCN(C(=O)CC#N)C[C@@H]1N(C)c1ncnc2[nH]ccc12 | > 10 | > 10 | > 10 | > 10 | > 10 | 111 | 94.4 | 105 | 97.7 | 108 | 98.6 | 94.8 | 97 | 98.3 | 96.1 | 101 | 103 | 101 | 103 | 96.9 | 102 | 103 | 94.4 | 96.9 | 104 | 96.3 | 97.5 | 106 | 112 | 110 | 0 | 0 | 0 | 0 | 0 |
| Cc1ccc2c(=O)c3ccccc3n(CCCN)c2c1C | 0.777 | 1.12 | 3.33 | 1.32 | 1.6 | 99.3 | 94.2 | 102 | 38.2 | 5.4 | 96.2 | 99.9 | 91.7 | 57 | 3.7 | 100 | 102 | 96.9 | 103 | 1.3 | 100 | 92.8 | 91.6 | 72.7 | 28.5 | 97.8 | 102 | 104 | 81.3 | 20.6 | 12.4 | 10.3 | 5.3 | 7 | 7.3 |
